Results: patent publication EP2065370A1, “2-cyanobenzene sulfonamides as pesticides” (Bayer CropScience AG, priority 2007, dated 2009)

Test system: Meloidogyne incognita
Experiment: Meloidogyne test (MELGIN spray treatment)
Format: in vivo
Conditions: 20 ppm; sand with egg-larvae suspension and lettuce seeds; 100 % = no galls found
Description: Meloidogyne-Test (MELGIN Spritzbehandlung)
Zur Herstellung einer zweckmäßigen Wirkstoffzubereitung vermischt man 1 Gewichtsteil Wirkstoff mit der angegebenen Menge Lösungsmittel und verdünnt das Konzentrat mit Wasser auf die gewünschte Konzentration.
Gefäße werden mit Sand, Wirkstofflösung, Meloidogyne incognita-Ei-Larven-Suspension und Salatsamen gefüllt. Die Salatsamen keimen und die Pflänzchen entwickeln sich. An den Wurzeln entwickeln sich die Gallen.
Nach der gewünschten Zeit wird die nematizide Wirkung an Hand der Gallenbildung in % bestimmt. Dabei bedeutet 100 %, dass keine Gallen gefunden wurden; 0 % bedeutet, dass die Zahl der Gallen an den behandelten Pflanzen der der unbehandelten Kontrolle entspricht.
Bei diesem Test zeigen z. B. die folgenden Verbindungen der Herstellungsbeispiele eine Wirkung von ≥ 80 % bei einer Aufwandmenge von 20 ppm: Beispiel Nr. I-1, I-2

SMILES | nematizide Wirkung an Hand der Gallenbildung [%]
CN(Cc1ccccn1)S(=O)(=O)c1cccc(F)c1C#N [I-2] | ≥ 80
CN(Cc1ccccn1)S(=O)(=O)c1ccccc1C#N [I-1, 2-Cyano-N-methyl-N-(pyridin-2-ylmethyl)benzolsulfonamid] | ≥ 80
